The compounds below were run against T1, Mer (Homo sapiens, UniProt Q12866) (assay: Mer autophosphorylation ELISA in transient transfected 293A cells). Details: cellular activity; MERTK-transfected 293A cells, phospho-Mer ELISA.
T1 construct: host or cells: 293A cells (Thermo Fisher #R70507)
T1 sequence (Q12866 21-999): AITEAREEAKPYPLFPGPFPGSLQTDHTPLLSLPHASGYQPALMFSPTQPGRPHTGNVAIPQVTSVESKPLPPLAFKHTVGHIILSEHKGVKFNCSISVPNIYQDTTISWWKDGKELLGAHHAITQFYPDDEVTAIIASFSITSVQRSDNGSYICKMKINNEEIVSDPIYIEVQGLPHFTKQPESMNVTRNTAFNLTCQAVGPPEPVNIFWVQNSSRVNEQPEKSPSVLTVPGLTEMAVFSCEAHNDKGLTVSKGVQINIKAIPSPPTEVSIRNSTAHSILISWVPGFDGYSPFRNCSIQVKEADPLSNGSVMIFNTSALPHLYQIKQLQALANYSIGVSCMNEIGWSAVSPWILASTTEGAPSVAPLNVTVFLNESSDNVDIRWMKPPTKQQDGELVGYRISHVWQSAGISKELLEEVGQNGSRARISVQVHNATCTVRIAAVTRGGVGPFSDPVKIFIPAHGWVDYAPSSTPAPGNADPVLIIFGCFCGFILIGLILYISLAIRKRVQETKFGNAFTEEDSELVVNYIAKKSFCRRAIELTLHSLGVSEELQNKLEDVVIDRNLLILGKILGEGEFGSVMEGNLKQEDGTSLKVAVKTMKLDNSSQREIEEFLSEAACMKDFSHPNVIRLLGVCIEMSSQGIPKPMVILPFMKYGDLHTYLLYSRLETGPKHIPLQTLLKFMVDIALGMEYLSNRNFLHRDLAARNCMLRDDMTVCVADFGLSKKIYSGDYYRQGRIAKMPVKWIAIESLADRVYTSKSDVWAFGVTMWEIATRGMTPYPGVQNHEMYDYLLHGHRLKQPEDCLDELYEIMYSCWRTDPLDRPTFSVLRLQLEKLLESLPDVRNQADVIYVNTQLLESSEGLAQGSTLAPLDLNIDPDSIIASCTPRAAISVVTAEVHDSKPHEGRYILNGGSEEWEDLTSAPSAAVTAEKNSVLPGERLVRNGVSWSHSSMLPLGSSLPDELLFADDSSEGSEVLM
Type: cell-based
Procedure: 293A cells (Thermo Fisher #R70507) were seeded at 1.5×10^6 cells/well onto 100 mm dish (Greiner #664169), in DMEM (Thermo Fisher #11995-040) containing 10% FBS (Thermo Fisher #26140-079), 1% MEM NEAA (Thermo Fisher #11140-050), 1% GlutaMax (Thermo Fisher #35050-061), and 1% Penicillin Streptomycin (Thermo Fisher #15140-122). 293A cells were incubated at 37° C., 5% CO2 for 24 h and then transfected with 6 μg MERTK DNA (Genecopoeia #EX-Z8208-M02) using TransIT LT1 transfection reagent (Mirus-Bio #MIR2305). After 24 h incubation, the transfected 293A cells were seeded at 1×10^5 cells/well onto 96-well plates (Corning #3904) in DMEM growth medium overnight. Test compounds were serially diluted to produce an 8-point dose curve in fresh serum-free medium to a final concentration of 0.3% DMSO (vehicle) and added to the cells and incubated for 1 h. Cells were then immediately lysed with 150 μL of cold 1× lysis buffer [20 mM Tris, 137 mM sodium chloride, 2 mM EDTA, 10% glycerol, 1% NP-40 alternative, 1 mM activated sodium orthovanadate, 1 mM PefaBloc SC (Sigma-Aldrich #11429868001), protease/phosphatase inhibitor tablet (Thermo Fisher #A32959)]. Lysates were clarified by centrifugation and 50 μL/well added into the human phospho-Mer DuoSet IC ELISA (R&D Systems #DYC2579-2). Assay was performed according to manufacturer's instructions and sample phospho-Mer concentrations were extrapolated using human phospho-Mer control (R&D Systems #841793) as a standard. Positive control wells (100% activity) contained DMSO-treated cell lysates. Negative control wells (0% activity) contained reference inhibitor-treated cell lysates. IC50 values were calculated by nonlinear regression analysis using a 4-parameter logistic curve fit in ActivityBase XE (IDBS).

Row | IC50 | Structure (SMILES)
1 | 10 to 100 nM | O=C(Nc1ccc(F)cc1)C1(C(=O)Nc2cc(F)c(Oc3ccnc4cc(-c5cnn(C(F)F)c5)ccc34)cc2F)CC1 [Compound 118, 1-N′-[4-[7-[1-(Difluoromethyl)pyrazol-4-yl]quinolin-4-yl]oxy-2,5-difluorophenyl]-1-N-(4-fluorophenyl)cyclopropane-1,1-dicarboxamide]
2 | 10 to 100 nM | Cn1cc(-c2ccc3c(Oc4ccc(NC(=O)C5(C(=O)Nc6ccc(F)cc6)CC5)cc4)ccnc3c2)ccc1=O [Compound 119, 1-N′-(4-Fluorophenyl)-1-N-[4-[7-(1-methyl-6-oxopyridin-3-yl)quinolin-4-yl]oxyphenyl]cyclopropane-1,1-dicarboxamide]
3 | 10 to 100 nM | Cc1cc2c(Oc3ccc(NC(=O)C4(C(=O)Nc5ccc(F)cc5)CC4)cc3)ccnc2cc1-c1ncc[nH]1 [Compound 120, 1-N′-(4-Fluorophenyl)-1-N-[4-[7-(1H-imidazol-2-yl)-6-methylquinolin-4-yl]oxyphenyl]cyclopropane-1,1-dicarboxamide]
4 | 10 to 100 nM | Cc1cc2c(Oc3cc(F)c(NC(=O)C4(C(=O)Nc5ccc(F)cc5)CC4)cc3F)ccnc2cc1-c1ncc[nH]1 [Compound 121, 1-N′-[2,5-Difluoro-4-[7-(1H-imidazol-2-yl)-6-methylquinolin-4-yl]oxyphenyl]-1-N-(4-fluorophenyl)cyclopropane-1,1-dicarboxamide]
5 | 10 to 100 nM | Cc1cc2c(Oc3ccc(NC(=O)C4(C(=O)Nc5ccc(F)cc5)CC4)cc3F)ccnc2cc1-c1ncc[nH]1 [Compound 122, 1-N′-[3-Fluoro-4-[7-(1H-imidazol-2-yl)-6-methylquinolin-4-yl]oxyphenyl]-1-N-(4-fluorophenyl)cyclopropane-1,1-dicarboxamide]
6 | 10 to 100 nM | O=C(Nc1ccc(F)cc1)C1(C(=O)Nc2ccc(Oc3ccnc4cc(-c5cnn(C(F)F)c5)ccc34)c(F)c2)CC1 [Compound 123, 1-N′-[4-[7-[1-(Difluoromethyl)pyrazol-4-yl]quinolin-4-yl]oxy-3-fluorophenyl]-1-N-(4-fluorophenyl)cyclopropane-1,1-dicarboxamide]
7 | 10 to 100 nM | O=C(Nc1ccc(F)cc1)C1(C(=O)Nc2ccc(Oc3ccnc4cc(-c5cc6n(n5)CCC6)ccc34)cc2)CC1 [Compound 124, 1-N-[4-[7-(5,6-Dihydro-4H-pyrrolo[1,2-b]pyrazol-2-yl)quinolin-4-yl]oxyphenyl]-1-N′-(4-fluorophenyl)cyclopropane-1,1-dicarboxamide]

Further lines, the compound ahead of its results:

Row | Structure (SMILES) | IC50
8 | O=C(Nc1ccc(F)cc1)C1(C(=O)Nc2ccc(Oc3ccnc4cc(-c5ccncn5)ccc34)cc2)CC1 [Compound 114, 1-N′-(4-Fluorophenyl)-1-N-[4-(7-pyrimidin-4-ylquinolin-4-yl)oxyphenyl]cyclopropane-1,1-dicarboxamide] | 10 to 100 nM
9 | O=C(Nc1ccc(F)cc1)C1(C(=O)Nc2cc(F)c(Oc3ccnc4cc(-c5cccnc5)ccc34)cc2F)CC1 [Compound 115, 1-N′-[2,5-Difluoro-4-(7-pyridin-3-ylquinolin-4-yl)oxyphenyl]-1-N-(4-fluorophenyl)cyclopropane-1,1-dicarboxamide] | 10 to 100 nM
10 | O=C(Nc1ccc(F)cc1)C1(C(=O)Nc2ccc(Oc3ccnc4cc(-c5cncs5)ccc34)cc2)CC1 [Compound 116, 1-N′-(4-Fluorophenyl)-1-N-[4-[7-(1,3-thiazol-5-yl)quinolin-4-yl]oxyphenyl]cyclopropane-1,1-dicarboxamide] | 10 to 100 nM
11 | Cn1ccc(-c2ccc3c(Oc4ccc(NC(=O)C5(C(=O)Nc6ccc(F)cc6)CC5)cc4)ccnc3c2)cc1=O [Compound 117, 1-N′-(4-Fluorophenyl)-1-N-[4-[7-(1-methyl-2-oxopyridin-4-yl)quinolin-4-yl]oxyphenyl]cyclopropane-1,1-dicarboxamide] | 10 to 100 nM

Each compound was assayed against T2, Human Axl (Homo sapiens, UniProt P30530, Q764R) (assay: Human AXL kinase assay (33P-phosphoryl transfer radiometric, KinaseProfiler)). Details: biochemical activity; 10 μM ATP.
T2 construct: Human Axl (residues H473-A894 with Q764R, 161 nM); purchased Eurofins Pharma Discovery Services UK Limited (KinaseProfiler service)
T2 sequence (P30530 473-894 Q764R): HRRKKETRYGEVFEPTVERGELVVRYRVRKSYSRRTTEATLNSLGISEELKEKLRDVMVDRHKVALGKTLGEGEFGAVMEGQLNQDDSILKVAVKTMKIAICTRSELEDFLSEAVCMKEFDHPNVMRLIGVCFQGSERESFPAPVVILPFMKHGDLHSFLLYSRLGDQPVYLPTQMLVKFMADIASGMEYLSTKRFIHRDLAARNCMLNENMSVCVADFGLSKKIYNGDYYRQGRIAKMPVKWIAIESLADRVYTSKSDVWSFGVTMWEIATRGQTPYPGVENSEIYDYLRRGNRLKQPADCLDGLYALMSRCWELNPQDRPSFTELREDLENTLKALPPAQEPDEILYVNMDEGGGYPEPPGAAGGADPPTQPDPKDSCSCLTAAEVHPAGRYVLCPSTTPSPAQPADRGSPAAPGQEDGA
Procedure: Kinase activity and compound inhibition were investigated using the ^33P-Phosphoryl transfer radiometric kinase assay, performed using the KinaseProfiler™ service of Eurofins Pharma Discovery Services UK Limited. Dose-response experiments were performed using nine compound concentrations in a 96-well microtiter plate. For each assay, all compounds were prepared to a 50× final assay concentration (50 μM) in 100% DMSO, then diluted in a half-log series, with the final top concentration at 1 μM. This working stock of the compound was added to the assay well as the first component in the reaction, followed by the remaining components as detailed in the following assay protocols below. The positive control wells (100% kinase activity) contain all components of the reaction including 2% DMSO (control for solvent effects), except the compound of interest. Blank wells contain all components of the reaction, with the reference inhibitor, staurosporine. This reference compound was used to abolish kinase activity and generated the 0% kinase activity base-line. IC50 values were calculated by nonlinear regression analysis using the sigmoidal dose-response (variable slope) curve fit on XLFit version 5.3 (ID Business Solutions).
Human Axl (residues H473-A894 with Q764R, 161 nM) was incubated with 8 mM MOPS pH 7.0, 0.2 mM EDTA, 250 μM KKSRGDYMTMQIG, 10 mM magnesium acetate, and 10 μM [y-^33P-ATP]. The reaction was initiated by the addition of the Mg/ATP mix. After incubation for 40 minutes at room temperature, the reaction was stopped by the addition of phosphoric acid to a concentration of 0.5%. A reaction aliquot of 10 μL was then spotted onto a P30 filtermat and washed four times for 4 minutes in 0.425% phosphoric acid and once in methanol prior to drying and scintillation counting. Incorporated ^33P was measured using the Wallac Microbeta scintillation counter (Perkin Elmer).

Row | IC50 | Structure (SMILES)
12 | 100 to 1000 nM | Cc1noc(C)c1-c1ccc2c(Oc3ccc(NC(=O)C4(C(=O)Nc5ccc(F)cc5)CC4)cc3)ccnc2c1 [Compound 53, 1-N-[4-[7-(3,5-Dimethyl-1,2-oxazol-4-yl)quinolin-4-yl]oxyphenyl]-1-N′-(4-fluorophenyl)cyclopropane-1,1-dicarboxamide]
13 | 100 to 1000 nM | C[Si](C)(C)C#Cc1ccc2c(Oc3ccc(NC(=O)C4(C(=O)Nc5ccc(F)cc5)CC4)cc3)ccnc2c1 [Compound 63, 1-N′-(4-Fluorophenyl)-1-N-[4-[7-(2-trimethylsilylethynyl)quinolin-4-yl]oxyphenyl]cyclopropane-1,1-dicarboxamide]
14 | 10 to 100 nM | C#Cc1ccc2c(Oc3ccc(NC(=O)C4(C(=O)Nc5ccc(F)cc5)CC4)cc3)ccnc2c1 [Compound 64, 1-N-[4-(7-Ethynylquinolin-4-yl)oxyphenyl]-1-N′-(4-fluorophenyl)cyclopropane-1,1-dicarboxamide]
15 | 100 to 1000 nM | O=C(Nc1ccc(F)cc1)C1(C(=O)Nc2ccc(Oc3ccnc4cc(-c5cnn[nH]5)ccc34)cc2)CC1 [Compound 65, 1-N′-(4-Fluorophenyl)-1-N-[4-[7-(1H-triazol-5-yl)quinolin-4-yl]oxyphenyl]cyclopropane-1,1-dicarboxamide]
16 | 100 to 1000 nM | CN(C(=O)C1(C(=O)Nc2ccc(Oc3ccnc4cc(-c5cnn(C)c5)ccc34)cc2)CC1)c1ccc(F)cc1 [Compound 82A, 1-N′-(4-Fluorophenyl)-1-N′-methyl-1-N-[4-[7-(1-methylpyrazol-4-yl)quinolin-4-yl]oxyphenyl]cyclopropane-1,1-dicarboxamide]

Reference: US12503438B2, “Compounds for the treatment of kinase-dependent disorders” (Exelixis, Inc., priority 2019, dated 2025)
